Legend:
Settings in all cases: incubation time: 72 h
CAL-85-1 [1] = experiment: normalised response (% of control), CellTiter-Glo; higher = more viable cells (100 = DMSO, 0 = benzethonium chloride kill control)
In short: (§1)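 Two readouts were taken after 72 h: CellTox Green fluorescence (485/520 nm) first, then CellTiter-Glo luminescence after 10 min at room temperature. Breast cancer cell lines had been seeded as 20 µl suspension into 384-well plates holding compound at 5 concentrations in 10-fold steps across a compound-specific 10,000-fold range. Each value is a normalised signal at a single concentration, with plates scaled to 0.1 % DMSO (100) and a positive kill control (0).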

BT-549 = experiment: as above
In short: as §1

HCC1143 = experiment: as above
In short: as §1

CAL-51 [2] = experiment: as above
In short: as §1

SK-BR-3 = experiment: as above
In short: as §1

MFM-223 = experiment: as above
In short: as §1

MDA-MB-468 = experiment: as above
In short: as §1

BT-474 = experiment: as above
In short: as §1

HDQ-P1 [3] = experiment: as above
In short: as §1

HCC1599 = experiment: as above
In short: as §1

MDA-MB-436 = experiment: as above
In short: as §1

HCC1937 = experiment: as above
In short: as §1

MCF-10A = experiment: as above
In short: as §1

CAL-120 = experiment: as above
In short: as §1

MDA-MB-231 = experiment: as above
In short: as §1

Hs578T = experiment: as above
In short: as §1

MDA-MB-453 [4] = experiment: as above
In short: as §1

CAL-148 [5] = experiment: as above
In short: as §1

CAL-85-1 [6] = experiment: normalised viability (% of control), CellTiter-Blue; higher = more viable cells (about 100 = DMSO control)
Procedure: (§2)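 DSRT, CellTiter-Blue viability, 72 h incubation. Signal is normalised to DMSO and benzethonium chloride controls. Value is the normalised response at dose 7.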

CAL-51 [7] = experiment: as above
Procedure: as §2

HDQ-P1 [8] = experiment: as above
Procedure: as §2

DU-4475 = experiment: as above
Procedure: as §2

MDA-MB-453 [9] = experiment: as above
Procedure: as §2

CAL-148 [10] = experiment: as above
Procedure: as §2

Structure (SMILES) | normalised response (CAL-85-1 [1]) [%] | normalised response (BT-549) [%] | normalised response (HCC1143) [%] | normalised response (CAL-51 [2]) [%] | normalised response (SK-BR-3) [%] | normalised response (MFM-223) [%] | normalised response (MDA-MB-468) [%] | normalised response (BT-474) [%] | normalised response (HDQ-P1 [3]) [%] | normalised response (HCC1599) [%] | normalised response (MDA-MB-436) [%] | normalised response (HCC1937) [%] | normalised response (MCF-10A) [%] | normalised response (CAL-120) [%] | normalised response (MDA-MB-231) [%] | normalised response (Hs578T) [%] | normalised response (MDA-MB-453 [4]) [%] | normalised response (CAL-148 [5]) [%] | normalised viability (CAL-85-1 [6]) [%] | normalised viability (CAL-51 [7]) [%] | normalised viability (HDQ-P1 [8]) [%] | normalised viability (DU-4475) [%] | normalised viability (MDA-MB-453 [9]) [%] | normalised viability (CAL-148 [10]) [%]
COc1cc2c(Oc3ccc(NC(=O)C4(C(=O)Nc5ccc(F)cc5)CC4)cc3F)ccnc2cc1OCCCN1CCOCC1 [Foretinib] (100 nM) | 98 | 114 | 93.8 | 99.5 | 107 | 75.7 | 105 | 92.3 | 95.5 | 89.8 | 110 | 98.1 | 95.1 | 93.9 | 87 | 96.1 | 85.6 | 102 | 84.7 | 85.4 | 77.3 | 100 | 91.1 | 92.8
NC(=O)NO [Hydroxyurea] (10000 nM) | 98.2 | 90.8 | 105 | 45.2 | 110 | 105 | 107 | 92.7 | 100 | 111 | 97.7 | 98.4 | 109 | 95.7 | 103 | 109 | 114 | 101 | 102 | 104 | 103 | 101 | 108 | 112
O=NN(CCCl)C(=O)NC1CCCCC1 [Lomustine] (1000 nM) | 94.1 | 107 | 98.1 | 112 | 94.6 | 98 | 104 | 101 | 102 | 128 | 104 | 102 | 105 | 100 | 98.5 | 101 | 113 | 95.3 | 93.3 | 110 | 97.6 | 90.6 | 94.4 | 92.3
O=C(O)CC[C@H]1CC[C@@](c2cc(F)ccc2F)(S(=O)(=O)c2ccc(Cl)cc2)CC1 [MK-0752] (100 nM) | 92 | 91.6 | 108 | 113 | 109 | 109 | 107 | 98.7 | 95.6 | 109 | 104 | 98.5 | 109 | 95.6 | 104 | 103 | 108 | 95.4 | 102 | 101 | 110 | 122 | 109 | 122
NC1(c2ccc(-c3nc4ccn5c(=O)[nH]nc5c4cc3-c3ccccc3)cc2)CCC1 [MK-2206] (100 nM) | 109 | 90.3 | 98.2 | 95.1 | 83.5 | 98.5 | 94.6 | 97.4 | 99.2 | 104 | 108 | 96.6 | 107 | 99.8 | 103 | 97.2 | 76.5 | 97 | 86.7 | 100 | 82.9 | 92.7 | 84.4 | 91.5
NC(=O)c1cccc2cn(-c3ccc([C@@H]4CCCNC4)cc3)nc12 [MK-4827] (1000 nM) | 105 | 97.4 | 104 | 95.2 | 98.8 | 106 | 101 | 109 | 102 | 107 | 79.3 | 105 | 106 | 101 | 109 | 102 | 140 | 97.6 | 93 | 90.8 | 91.8 | 78.9 | 93.3 | 87.4
O=C(c1cc(Cc2n[nH]c(=O)c3ccccc23)ccc1F)N1CCN(C(=O)C2CC2)CC1 [Olaparib] (1000 nM) | 101 | 94.9 | 94.8 | 98.5 | 92 | 101 | 91.8 | 87.6 | 96.6 | 101 | 75.2 | 95.6 | 92.3 | 92.3 | 88.7 | 97.5 | 132 | 83.1 | 85.8 | 88.6 | 104 | 81.1 | 79.4 | 84.3

— the supplement of paper PMC4862054
